The results in this text go back to US20090143361A1, “Pyrido[3,2-E]Pyrazines, Process For Preparing The Same, And Their Use As Inhibitors Of Phosphodiesterase 10” (ELBION GMBH, priority 2007, published 2009).

Bounds are passed on as bounds.

Usually IC50 stands for the concentration that inhibits the measured activity by half.

The target of the test is T1, human recombinant PDE10A (Homo sapiens, UniProt Q9Y233).
T1 construct: made in house; host or cells: SF21 insect cells (baculovirus)
T1 sequence (Q9Y233 1-779 isoform Q9Y233-1): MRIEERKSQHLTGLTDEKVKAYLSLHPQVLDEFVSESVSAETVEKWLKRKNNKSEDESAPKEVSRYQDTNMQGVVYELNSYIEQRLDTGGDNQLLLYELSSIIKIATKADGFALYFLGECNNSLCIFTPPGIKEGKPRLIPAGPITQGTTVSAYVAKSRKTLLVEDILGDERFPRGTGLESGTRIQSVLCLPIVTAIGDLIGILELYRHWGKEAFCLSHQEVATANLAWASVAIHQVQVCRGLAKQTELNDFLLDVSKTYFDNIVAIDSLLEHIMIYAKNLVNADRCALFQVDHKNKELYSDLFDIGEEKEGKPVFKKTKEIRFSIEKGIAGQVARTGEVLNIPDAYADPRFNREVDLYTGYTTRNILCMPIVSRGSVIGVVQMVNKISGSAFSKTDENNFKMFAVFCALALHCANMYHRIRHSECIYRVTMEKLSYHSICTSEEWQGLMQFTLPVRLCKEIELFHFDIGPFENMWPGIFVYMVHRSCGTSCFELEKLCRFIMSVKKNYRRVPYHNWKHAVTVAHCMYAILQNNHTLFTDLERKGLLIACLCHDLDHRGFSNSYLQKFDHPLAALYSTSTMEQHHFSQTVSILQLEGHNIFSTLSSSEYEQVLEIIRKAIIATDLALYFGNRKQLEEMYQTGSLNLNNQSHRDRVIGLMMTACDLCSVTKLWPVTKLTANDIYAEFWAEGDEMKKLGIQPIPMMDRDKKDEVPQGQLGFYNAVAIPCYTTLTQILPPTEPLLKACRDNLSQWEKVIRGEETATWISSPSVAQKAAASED
Description: Inhibition of PDE10, human recombinant PDE10A ([3H]-cAMP SPA). Type of test: biochemical. To be noted: Table 9; read-out: hPDE10 IC50. On the procedure:
The gene was than inserted into a baculovirus vector, ligated with the baculovirus DNA. The enzyme-protein was expressed in SF21-cells. The enzyme was isolated from these cells by harvesting the cells by a centrifugation at 200 g to collect the cells. The cells were resuspended in 50 mM Tris-HCl/5 mM MgCl2 buffer (pH=7.4) and lysed by a sonication of the cells. The cytosolic PDE10A was obtained by a centrifugation at 48000 g for 1 h in the supernatant and stored at −70° C. PDE10 activity was determined in a one step procedure in microtiterplates. […] Nonspecific activity was tested without the enzyme. The reaction was initiated by addition of the substrate solution and was carried out at 37° C. for 30 minutes. Enzymatic activity was stopped by addition of 25 μl YSi-SPA-beads (Amersham-Pharmacia). One hour later the mixture was measured in a liquid scintillation counter for microtiterplates (Microbeta Trilux). To pipette the incubation mixture a robot Biomek (Fa. Beckman) is used. […] For determination of IC50 values the Hill-plot, 2-parameter-model, was used.
Take `COc1ccc2nc(C#N)c3c(C)nc(-c4cccc(C(N)=O)c4)n3c2n1` [Example 167, 3-(6-cyano-2-methoxy-7-methylimidazo[1,5-a]pyrido[3,2-e]pyrazin-9-yl)benzamide]: the half-maximal inhibitory concentration (IC50) is 10 to 100 nM.

For the compound `COc1ccc2nc(C#N)c3c(C)nc(-c4ccc(F)c(C(N)=O)c4)n3c2n1` [Example 168, 5-(6-cyano-2-methoxy-7-methylimidazo[1,5-a]pyrido[3,2-e]pyrazin-9-yl)-2-fluorobenzamide], the IC50 is less than 10 nM.

As to `COc1ccc2nc(C#N)c3c(C)nc(-c4cnccc4C)n3c2n1` [Example 169, 2-methoxy-7-methyl-9-(4-methylpyridin-3-yl)imidazo[1,5-a]pyrido[3,2-e]pyrazine-6-carbonitrile], the concentration for half-maximal inhibition (IC50) was greater than 100 nM.

Regarding `COc1ccc2nc(C#N)c3c(C)nc(-c4ccncc4)n3c2n1` [Example 170, 2-methoxy-7-methyl-9-pyridin-4-ylimidazo[1,5-a]pyrido[3,2-e]pyrazine-6-carbonitrile], the IC50 was greater than 100 nM.

As to `COc1ccc2nc(C#N)c3c(C)nc(-c4cccnc4)n3c2n1` [Example 171, 2-methoxy-7-methyl-9-pyridin-3-ylimidazo[1,5-a]pyrido[3,2-e]pyrazine-6-carbonitrile], the concentration for half-maximal inhibition (IC50) lay within 10 to 100 nM.

Turning to `COc1ccc2nc(C#N)c3c(C)nc(-c4ccc(F)nc4C)n3c2n1` [Example 172, 9-(6-fluoro-2-methylpyridin-3-yl)-2-methoxy-7-methylimidazo[1,5-a]pyrido[3,2-e]pyrazine-6-carbonitrile], the 50% inhibitory concentration (IC50) is greater than 100 nM.

For the compound `COc1ccc2nc(C)c3c(C)nc(-c4ccnc(F)c4)n3c2n1` [Example 174, 9-(2-fluoropyridin-4-yl)-2-methoxy-6,7-dimethylimidazo[1,5-a]pyrido[3,2-e]pyrazine], the IC50 lay in the range of 10 to 100 nM.

Turning to `COc1ccc2nc(C)c3c(C)nc(-c4cccnc4F)n3c2n1` [Example 175, 9-(2-fluoropyridin-3-yl)-2-methoxy-6,7-dimethylimidazo[1,5-a]pyrido[3,2-e]pyrazine], the IC50 was less than 10 nM.

With `COc1ccc2nc(C)c3c(C)nc(-c4ccc5[nH]ccc5c4)n3c2n1` [Example 177, 9-(1H-indol-5-yl)-2-methoxy-6,7-dimethylimidazo[1,5-a]pyrido[3,2-e]pyrazine], the IC50 is less than 10 nM.

In the case of `COc1ccc2nc(C)c3c(C)nc(-c4ccc(N(C)C)nc4)n3c2n1` [Example 178, 5-(2-methoxy-6,7-dimethylimidazo[1,5-a]pyrido[3,2-e]pyrazin-9-yl)-N,N-dimethylpyridin-2-amine], the 50% inhibitory concentration (IC50) is greater than 100 nM.

With `COc1ccc2nc(C)c3c(C)nc(-c4cnn(C)c4)n3c2n1` [Example 180, 2-methoxy-6,7-dimethyl-9-(1-methyl-1H-pyrazol-4-yl)imidazo[1,5-a]pyrido[3,2-e]pyrazine], the IC50 lay within 10 to 100 nM.

For the compound `COc1ccc2nc(C)c3c(C)nc(-c4cc[nH]c4)n3c2n1` [Example 181, 2-methoxy-6,7-dimethyl-9-(1H-pyrrol-3-yl)imidazo[1,5-a]pyrido[3,2-e]pyrazine], the IC50 lay in the range of 10 to 100 nM.

For `COc1ccc2nc(C)c3c(C)nc(-c4cnn(CC(C)C)c4)n3c2n1` [Example 182, 2-methoxy-6,7-dimethyl-9-[1-(2-methylpropyl)-1H-pyrazol-4-yl]imidazo[1,5-yl}imidazo[1,5-a]pyrido[3,2-e]pyrazine], the concentration for half-maximal inhibition (IC50) was greater than 100 nM.

For the compound `COc1cncc(-c2nc(C)c3c(C)nc4ccc(OC)nc4n23)c1` [Example 184, 2-methoxy-9-(5-methoxypyridin-3-yl)-6,7-dimethylimidazo[1,5-a]pyrido[3,2-e]pyrazine], the IC50 is less than 10 nM.

On to `COc1ccc2nc(C)c3c(C)nc(-c4ccc(N5CCOCC5)nc4)n3c2n1` [Example 187, 2-methoxy-6,7-dimethyl-9-(6-morpholin-4-ylpyridin-3-yl)imidazo[1,5-a]pyrido[3,2-e]pyrazine], for which the half-maximal inhibitory concentration (IC50) is greater than 100 nM.

As to `COc1ccc2nc(C)c3c(C)nc(-c4cccc(N5CCOCC5)c4)n3c2n1` [Example 188, 2-methoxy-6,7-dimethyl-9-(3-morpholin-4-ylphenyl)imidazo[1,5-a]pyrido[3,2-e]pyrazine], the IC50 was greater than 100 nM.
